Assay results from publication PMC6277767, “Broad and Region-Specific Impacts of the Synthetic Cannabinoid CP 55,940 in Adolescent and Adult Female Mouse Brains” (Frontiers in Molecular Neuroscience, 2018).

Tested on: CD1 female mouse brain lipidome
Experiment: Brain-region lipid levels (HPLC/MS/MS lipidomics) 2 h after single i.p. 3 mg/kg CP 55,940 vs vehicle
Format: in vivo
Design: N-arachidonoyl phenylalanine level, Mean / N-stearoyl tryptophan level, Mean / N-stearoyl proline level, Mean / N-stearoyl leucine level, Mean / N-stearoyl phenylalanine level, Mean / N-stearoyl serine level, Mean / N-stearoyl methionine level, Mean: unit: moles per gram
Conditions: brainstem
Experimental: The Bloomington Institutional Animal Care and Use Committee of Indiana University reviewed and approved the animal procedures. Female mice from the CD1 strain were utilized to match our study examining THC’s effects on the brain lipidome ([Leishman et al., 2018]). Mice were given a single i.p. injection of either 3 mg/kg CP or 1:1:18 cremophor:ethanol:saline vehicle (please refer to the section “3 mg/kg CP Is Relevant for Synthetic Cannabinoid Abuse and Has Stronger Effects on the Female Mouse Brain Lipidome During Adolescence” for a justification of dose and use of female mice). Three different age groups were given injections: PND 35 and PND 50 adolescents, and adult mice (PND 113). At least eight mice in each age group received CP and at least eight received vehicle. Matching the THC study time course ([Leishman et al., 2018]), mice were sacrificed via rapid decapitation 2 h after injection. Brains were immediately removed and flash-frozen in liquid nitrogen, and then stored at -80°C until dissections were performed. Brains were dissected on an ice-cold dissection plate into the following regions: STR, HIPP, CER, THAL, CTX, HYP, MID, and STEM. These abbreviations for these brain areas will be used exclusively when discussing the results generated by these specific dissections. Each dissected area was immediately placed in liquid nitrogen and then stored at -80°C until used for lipid extraction.
Tissue extracts were performed as previously described ([Bradshaw et al., 2006]; [Stuart et al., 2013]; [Raboune et al., 2014]; [Leishman et al., 2016a],[b], [2017], [2018]). First, samples were shock frozen in liquid nitrogen, weighed, and transferred to a centrifuge tube. The mass of the largest sample was multiplied by 50 to determine how many milliliters of HPLC-grade methanol (Fisher, Fair Lawn, NJ, United States) to add. Then, samples were spiked with 500 pmol deuterium-labeled NAGly (d8NAGly; Cayman Chemical, Ann Arbor, MI, United States). Samples were placed on ice in darkness for 2 h then individually homogenized and centrifuged at 19,000 × g for 20 min at 20°C. Supernatants were diluted with HPLC water (purified in house) to make a solution of 75% water, 25% supernatant. Lipids were partially purified on C18 solid phase extraction columns (Agilent, Palo Alto, CA, United States). A series of four elutions with 1.5 mL of 60%, 75%, 85%, and 100% methanol were collected ([Stuart et al., 2013]; [Leishman et al., 2016a],[b], [2018]).
As previously described ([Bradshaw et al., 2006]; [Tan et al., 2006]; [Smoum et al., 2010]; [Stuart et al., 2013]; [Tortoriello et al., 2013]; [Raboune et al., 2014]; [Leishman et al., 2016a],[b], [2017], [2018]), samples were analyzed using an Applied Biosystems API 3000 triple quadrupole mass spectrometer with electrospray ionization (Foster City, CA, United States). Using an Agilent XDB-C18 reversed phase analytical column and optimized mobile phase gradients, 20 μL from each elution were chromatographed. Two Shimadzu 10ADvp pumps (Columbia, MD, United States) provided the pressure for gradient elution. Mobile phase A: 20% methanol, 80% water (v/v) and 1 mM ammonium acetate (Sigma, St. Louis, MO, United States). Mobile phase B: 100% methanol, 1 mM ammonium acetate. Every method run began with 0% mobile phase B, reached 100% mobile phase B flowing at 0.2 mL/min, and gradually returned to 0% mobile phase B.
This screening library will be referred to as the lipidome when discussing data from this study. HPLC/MS/MS data were analyzed using Analyst software (Applied Biosystems) ([Bradshaw et al., 2006]; [Tan et al., 2006]; [Stuart et al., 2013]; [Tortoriello et al., 2013]; [Raboune et al., 2014]; [Leishman et al., 2016a],[b], [2017], [2018]). Chromatograms (Supplementary Figure 3) were generated by determining the retention time of analytes from the analytical column with a [M-1] or [M+1] parent peak and a fragmentation peak corresponding to the programmed values. […]

[1] = PND 50, 3 mg/kg CP 55,940, one-way ANOVA p .000
[2] = PND 50, 3 mg/kg CP 55,940, one-way ANOVA p .001
[3] = PND 50, 3 mg/kg CP 55,940, one-way ANOVA p .002
[4] = PND 50, 3 mg/kg CP 55,940, one-way ANOVA p .003
[5] = PND 50, 3 mg/kg CP 55,940, one-way ANOVA p .006
[6] = PND 50, 3 mg/kg CP 55,940, one-way ANOVA p .007
[7] = PND 50, 3 mg/kg CP 55,940, one-way ANOVA p .008
[8] = PND 50, 3 mg/kg CP 55,940, one-way ANOVA p .014
[9] = PND 50, 3 mg/kg CP 55,940, one-way ANOVA p .015
[10] = PND 50, 3 mg/kg CP 55,940, one-way ANOVA p .018
[11] = PND 50, 3 mg/kg CP 55,940, one-way ANOVA p .023
[12] = PND 50, 3 mg/kg CP 55,940, one-way ANOVA p .041
[13] = PND 50, 3 mg/kg CP 55,940, one-way ANOVA p .043

CCCCCCC(C)(C)c1ccc([C@@H]2C[C@H](O)CC[C@H]2CCCO)c(O)c1 [CP 55,940]
N-arachidonoyl glycine level, Mean (PND 50, 3 mg/kg CP 55,940): 9.26E-12
N-arachidonoyl methionine level, Mean (PND 50, 3 mg/kg CP 55,940): PISSR
N-arachidonoyl phenylalanine level, Mean (PND 50, 3 mg/kg CP 55,940): 3.18E-13
N-arachidonoyl proline level, Mean (PND 50, 3 mg/kg CP 55,940): BDL
N-arachidonoyl serine level, Mean (PND 50, 3 mg/kg CP 55,940): 5.36E-12
N-arachidonoyl taurine level, Mean (PND 50, 3 mg/kg CP 55,940): 1.14E-11
N-arachidonoyl tryptophan level, Mean (PND 50, 3 mg/kg CP 55,940): BDL
N-arachidonoyl tyrosine level, Mean (PND 50, 3 mg/kg CP 55,940): 2.42E-13
N-docosahexaenoyl GABA level, Mean (PND 50, 3 mg/kg CP 55,940): 9.05E-13
N-docosahexaenoyl alanine level, Mean (PND 50, 3 mg/kg CP 55,940): PISSR
N-docosahexaenoyl ethanolamine level, Mean (PND 50, 3 mg/kg CP 55,940): 3.73E-11
N-docosahexaenoyl glycine level, Mean (PND 50, 3 mg/kg CP 55,940): 1.5E-12
N-docosahexaenoyl leucine level, Mean (PND 50, 3 mg/kg CP 55,940): 1.24E-13
N-docosahexaenoyl methionine level, Mean (PND 50, 3 mg/kg CP 55,940): PISSR
N-docosahexaenoyl phenylalanine level, Mean (PND 50, 3 mg/kg CP 55,940): 1.89E-13
N-docosahexaenoyl proline level, Mean (PND 50, 3 mg/kg CP 55,940): BDL
N-docosahexaenoyl serine level, Mean (PND 50, 3 mg/kg CP 55,940): 1.33E-11
N-docosahexaenoyl tryptophan level, Mean (PND 50, 3 mg/kg CP 55,940): BDL
N-docosahexaenoyl tyrosine level, Mean (PND 50, 3 mg/kg CP 55,940): 4.65E-13
N-docosahexaenoyl valine level, Mean (PND 50, 3 mg/kg CP 55,940): BDL
N-linoleoyl GABA level, Mean (PND 50, 3 mg/kg CP 55,940): 6.01E-13
N-linoleoyl alanine level, Mean (PND 50, 3 mg/kg CP 55,940): 1.01E-13
N-linoleoyl ethanolamine level, Mean (PND 50, 3 mg/kg CP 55,940): 3.38E-11
N-linoleoyl glycine level, Mean (PND 50, 3 mg/kg CP 55,940): 4.12E-13
N-linoleoyl leucine level, Mean (PND 50, 3 mg/kg CP 55,940): 4.41E-14
N-linoleoyl methionine level, Mean (PND 50, 3 mg/kg CP 55,940): PISSR
N-linoleoyl phenylalanine level, Mean (PND 50, 3 mg/kg CP 55,940): PISSR
N-linoleoyl proline level, Mean (PND 50, 3 mg/kg CP 55,940): BDL
N-linoleoyl serine level, Mean (PND 50, 3 mg/kg CP 55,940): 6.34E-11
N-linoleoyl tryptophan level, Mean (PND 50, 3 mg/kg CP 55,940): BDL
N-linoleoyl tyrosine level, Mean (PND 50, 3 mg/kg CP 55,940): PISSR
N-linoleoyl valine level, Mean (PND 50, 3 mg/kg CP 55,940): BDL
N-nervonoyl valine level, Mean (PND 50, 3 mg/kg CP 55,940): BDL
N-oleoyl GABA level, Mean (PND 50, 3 mg/kg CP 55,940): 3.95E-12
N-oleoyl alanine level, Mean (PND 50, 3 mg/kg CP 55,940): 1.3E-12
N-oleoyl dopamine level, Mean (PND 50, 3 mg/kg CP 55,940): BDL
N-oleoyl ethanolamine level, Mean (PND 50, 3 mg/kg CP 55,940): 7.29E-11
N-oleoyl glycine level, Mean (PND 50, 3 mg/kg CP 55,940): 5.38E-12
N-oleoyl leucine level, Mean (PND 50, 3 mg/kg CP 55,940): 4.93E-13
N-oleoyl methionine level, Mean (PND 50, 3 mg/kg CP 55,940): 1.84E-13
N-oleoyl phenylalanine level, Mean (PND 50, 3 mg/kg CP 55,940): 7.71E-13
N-oleoyl proline level, Mean (PND 50, 3 mg/kg CP 55,940): BDL
N-oleoyl serine level, Mean (PND 50, 3 mg/kg CP 55,940): 1.1E-10
N-oleoyl tryptophan level, Mean (PND 50, 3 mg/kg CP 55,940): BDL
N-oleoyl tyrosine level, Mean (PND 50, 3 mg/kg CP 55,940): 2.91E-13
N-oleoyl valine level, Mean (PND 50, 3 mg/kg CP 55,940): 6.02E-14
N-palmitoyl GABA level, Mean (PND 50, 3 mg/kg CP 55,940): 6.41E-12
N-palmitoyl alanine level, Mean (PND 50, 3 mg/kg CP 55,940): 3.07E-12
N-palmitoyl ethanolamine level, Mean (PND 50, 3 mg/kg CP 55,940): 6.28E-11
N-palmitoyl glycine level, Mean (PND 50, 3 mg/kg CP 55,940): 1.47E-11
N-palmitoyl leucine level, Mean (PND 50, 3 mg/kg CP 55,940): 1.11E-12
N-palmitoyl methionine level, Mean (PND 50, 3 mg/kg CP 55,940): 7.37E-13
N-palmitoyl phenylalanine level, Mean (PND 50, 3 mg/kg CP 55,940): 1.09E-12
N-palmitoyl proline level, Mean (PND 50, 3 mg/kg CP 55,940): BDL
N-palmitoyl serine level, Mean (PND 50, 3 mg/kg CP 55,940): 2E-11
N-palmitoyl tryptophan level, Mean (PND 50, 3 mg/kg CP 55,940): BDL
N-palmitoyl tyrosine level, Mean (PND 50, 3 mg/kg CP 55,940): 5.77E-13
N-palmitoyl valine level, Mean (PND 50, 3 mg/kg CP 55,940): 1.73E-13
N-stearoyl GABA level, Mean (PND 50, 3 mg/kg CP 55,940): 7.1E-12
N-stearoyl alanine level, Mean (PND 50, 3 mg/kg CP 55,940): 1.5E-12
N-stearoyl ethanolamine level, Mean (PND 50, 3 mg/kg CP 55,940): 2.63E-11
N-stearoyl glycine level, Mean (PND 50, 3 mg/kg CP 55,940): 4.43E-12
N-stearoyl leucine level, Mean (PND 50, 3 mg/kg CP 55,940): 7.24E-13
N-stearoyl methionine level, Mean (PND 50, 3 mg/kg CP 55,940): 8.45E-13
N-stearoyl phenylalanine level, Mean (PND 50, 3 mg/kg CP 55,940): 9.56E-13
N-stearoyl proline level, Mean (PND 50, 3 mg/kg CP 55,940): BDL
N-stearoyl serine level, Mean (PND 50, 3 mg/kg CP 55,940): 3.14E-11
N-stearoyl tryptophan level, Mean (PND 50, 3 mg/kg CP 55,940): BDL
N-stearoyl tyrosine level, Mean (PND 50, 3 mg/kg CP 55,940): 7.69E-14
Oleic acid level, Mean (PND 50, 3 mg/kg CP 55,940): 1.94E-10
PGE2 level, Mean (PND 50, 3 mg/kg CP 55,940): 1.11E-10
PhosphoLEA level, Mean (PND 50, 3 mg/kg CP 55,940): 7.34E-13
THC level, Mean (PND 50, 3 mg/kg CP 55,940): BDL
N-arachidonoyl GABA Direction (relative to Veh) [1]: ↓
N-arachidonoyl GABA Magnitude (x Veh level) [1]: 0.68 x Veh level
PGF2α Direction (relative to Veh) [1]: ↓
PGF2α Magnitude (x Veh level) [1]: 0.74 x Veh level
N-palmitoyl leucine, Direction (relative to Veh) [2]: ↑
N-palmitoyl leucine, Magnitude (x Veh level) [2]: 1.44 x Veh level
6-ketoPGF1α Direction (relative to Veh) [3]: ↓
6-ketoPGF1α Magnitude (x Veh level) [3]: 0.70 x Veh level
N-arachidonoyl taurine Direction (relative to Veh) [4]: ↓
N-arachidonoyl taurine Magnitude (x Veh level) [4]: 0.83 x Veh level
N-palmitoyl tyrosine Magnitude (x Veh level) [5]: 1.23 x Veh level
N-palmitoyl tyrosine, Direction (relative to Veh) [5]: ↑
N-arachidonoyl tyrosine, Direction (relative to Veh) [6]: ↓
N-arachidonoyl tyrosine, Magnitude (x Veh level) [6]: 0.74 x Veh level
N-arachidonoyl serine Direction (relative to Veh) [7]: ↓
N-arachidonoyl serine Magnitude (x Veh level) [7]: 0.80 x Veh level
PGE2 Direction (relative to Veh) [8]: ↓
PGE2 Magnitude (x Veh level) [8]: 0.73 x Veh level
2-linoleoyl glycerol Direction (relative to Veh) [9]: ↓
2-linoleoyl glycerol Magnitude (x Veh level) [9]: 0.74 x Veh level
Oleic acid, Direction (relative to Veh) [10]: ↓
Oleic acid, Magnitude (x Veh level) [10]: 0.84 x Veh level
N-arachidonoyl phenylalanine, Direction (relative to Veh) [11]: ↑
N-arachidonoyl phenylalanine, Magnitude (x Veh level) [11]: 1.40 x Veh level
N-oleoyl methionine, Direction (relative to Veh) [12]: ↓
N-oleoyl methionine, Magnitude (x Veh level) [12]: 0.68 x Veh level
Linoleic acid, Direction (relative to Veh) [13]: ↓
Linoleic acid, Magnitude (x Veh level) [13]: 0.81 x Veh level
2-oleoyl glycerol, Direction (relative to Veh) (PND 50, 3 mg/kg CP 55,940, one-way ANOVA p .046): ↓
